What all share (test): inhibition of tumour cell growth, NCI panel, 48 h
For assay [1], the system named is HS 578T breast.
The test system of assay [2] is MDA-MB-435.
The test system of assay [3] is NCI-H23 lung.
The subject of assay [4] is NCI/ADR-RES ovarian.
In assay [5] the test system is OVCAR-3 ovarian.
Assay [6] deals with UO-31 renal.
Assay [7] relates to SW-620 colon.
Assay [8] relates to OVCAR-8 ovarian.
In assay [9] the test system is ACHN renal.
The subject of assay [10] is DU-145 prostate.
Assay [11] concerns TK-10 renal.
Assay [12] concerns 786-0 renal.
Assay [13] relates to SF-539 CNS.
The subject of assay [14] is NCI-H522 lung.
Assay [15] concerns NCI-H226 lung.
Assay [16] concerns A549 NSCLC.
Assay [17] relates to IGROV1 ovarian.
The subject of assay [18] is LOX IMVI melanoma.
The subject of assay [19] is MALME-3M melanoma.

Structures are written as SMILES. Values joined by “and” are separate entries in the source; they are usually repeats but may differ in a detail not shown here. Identical values can stand only once.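 Compound exposure: 48 hours, 5 concentrations, 96-well plates. GI50 marks 50% less growth. Definition used: TGI = concentration required for complete inhibition of growth.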 A value given as a limit tells only on which side of the number the result lay.

On to `CC(=O)OCC1OC(Sc2nc(-c3ccc(C)cc3)c(C#N)c(=O)n2C2OC(COC(C)=O)C(OC(C)=O)C(OC(C)=O)C2OC(C)=O)C(OC(C)=O)C(OC(C)=O)C1OC(C)=O` (stereo not drawn), for which the TGI in [1], in assay [2], in [3], in [4], in assay [5] and in [6] was > 100 µM in each case. Also, the TGI in assay [7], in assay [8], in assay [9], in assay [10], in assay [11] and in [12] was > 100 µM in each case. The TGI in assay [13], in assay [14], in assay [15], in assay [16], in [17] and in assay [18] was > 100 µM throughout. For the same compound, the GI50 in assay [2] is > 100 µM and 34.7 µM.
As to `CCOC(=O)c1c2ccccc2n2c(=O)n(C)nnc12`, the TGI in assay [1], in assay [2], in assay [3], in [4], in assay [5] and in assay [6] was > 100 µM each time. The TGI in [7], in [8], in assay [9], in [10], in assay [11] and in assay [12] was > 100 µM in each case. Besides, the TGI in assay [13], in assay [15], in [19], in assay [16], in assay [17] and in [18] was > 100 µM throughout.
As to `N#C/C(=C\N1CCNC1=S)C(=O)c1ccc2ccccc2c1`, the TGI in [1], in assay [2], in [3], in assay [4], in assay [5] and in assay [6] was > 100 µM throughout. In addition, the TGI in assay [7], in assay [8], in [9], in assay [10], in [11] and in [12] was > 100 µM throughout. The TGI in [13], in assay [14], in assay [15], in assay [16], in assay [17] and in assay [18] was > 100 µM in each case.
As to `CCCCCCCCCCCCCCCCCCNc1ccn(C2OC(COP(=O)(O)OCCCCCCCCCCCCCCCC)C(O)C2O)c(=O)n1` (stereo not drawn), the TGI in assay [1], in [2], in assay [3], in assay [4], in [5] and in assay [6] was > 100 µM throughout. The TGI in assay [7], in assay [8], in [9], in [10], in assay [11] and in [12] was > 100 µM each time. The TGI in assay [13], in assay [14], in [15], in [16], in [17] and in [18] was > 100 µM in each case.
For `CN(C)c1ncc(-c2c[nH]c3ccccc23)nc1-c1c[nH]c2ccccc12`, the TGI in assay [1] turned out to be 9.5 µM; in assay [2] it was 12.1 µM; in assay [4] it was 88.3 µM; in [5], 18.6 µM; in assay [6], 13.3 µM; in assay [7], 11.8 µM. Also, the TGI in assay [8] was 23 µM; in [9] it was 6.88 µM; in assay [10], 20.9 µM; in assay [11], 22.1 µM; in assay [12], 4.07 µM; in assay [13] it was 25.3 µM. The TGI in assay [16] stood at 19.4 µM; in assay [17], 13.5 µM; in [18], 5.33 µM.
As for `C=C(Cl)C(Br)(CCl)CCC(Cl)C(C)C` (stereo not drawn) (tested in a mixture with another compound), the TGI worked out at 7.48 µM in assay [1]; 3.67 µM in assay [2]; 3.79 µM in assay [3]; 5.15 µM in assay [5]; 3.01 µM in [6]; 2.96 µM in assay [7]. The TGI in assay [9] was found to be 3.98 µM; in [10] it was 3.25 µM; in assay [11] it was 4.05 µM; in [12], 2.74 µM; in assay [13], 3.72 µM; in assay [14], 2.95 µM. Moreover, the TGI is 13.6 µM in [15]; 7.07 µM in assay [19]; 31.9 µM in [16]; 3.73 µM in [17]; 1.23 µM in assay [18].
For the compound `Cn1cc(C=C(C#N)C#N)c(=O)n(C)c1=O`, the TGI in assay [1], in assay [2], in assay [3], in assay [4], in [5] and in [6] was > 100 µM each time. In addition, the TGI in [7], in assay [8], in assay [9], in [10], in [11] and in [12] was > 100 µM each time. For the same compound, the TGI in assay [13], in assay [14], in assay [15], in assay [16], in assay [17] and in assay [18] was > 100 µM each time.
Consider `COc1cccc(NC(=O)c2c(SC)n[nH]c2N)c1`, for which the TGI in assay [1], in assay [2], in assay [4], in assay [7], in assay [8] and in [9] was > 100 µM in each case. Further, the TGI in assay [11], in [12], in assay [13], in assay [14], in [15] and in assay [19] was > 100 µM throughout. Besides, the TGI in [16], in [17] and in assay [18] was > 100 µM each time.

For the origin of these results see PubChem BioAssay (NCI).
